The Tmax is the time from dosing to the highest level. What is called half-life is the time in which the quantity being followed falls by half. Lower therefore signals fast loss.

Series [1] can be described thus: Adverse events, multiple ascending dose. As to conditions: MAD.
Series [2] can be described thus: CSF pharmacokinetics following single dose.
Series [3] is described as follows: CSF pharmacokinetics following multiple dosing. As to conditions: both, human, in vivo.
Series [4] can be described thus: Adverse events, single ascending dose.
Series [5] in a line: Plasma pharmacokinetics following single dose. It counts as in vivo. The settings on record: both, human, oral.
Series [6] can be described thus: Plasma and urine pharmacokinetics following multiple dosing. The settings on record: for CL renal: Mean renal clearance.

Where only a bound is given, the exact number is not on record here.

Consider `C[C@@]1(c2cc(NC(=O)c3ccc(C#N)cn3)ccc2F)C=CSC(N)=N1` [JNJ-54861911], for which the “Back pain, participants with AE” value was 21.2% in series [1] (all JNJ-54861911 participants (11/52)) and 23.8% in series [4] (SAD, all JNJ-54861911 participants (10/42)). Also, the “Headache, participants with AE” value in series [1] (all JNJ-54861911 participants (13/52)) is 25.0%; in series [4] (SAD, all JNJ-54861911 participants (16/42)) it was 38.1%. In series [2] (CSF, 1-mg and 3-mg dose level, elderly), the “Single-dose CSF concentrations” value is recorded as “generally below the LOQ”. In addition, the “Maximal mean concentrations in CSF” value in series [2] (day 1, single dose, range across 10–150 mg) lay in the range of 2.94 to 22.7 ng/mL. Further, the Tmax in series [3] is approximately 4 h; in series [5], 0.75 to 2 h; in series [6] (both, human, in vivo), 2 to 4 h. Also, the half-life in series [3] fell in the range of 11.7 to 14.4 h; in series [5], 9 to 16.1 h; in series [6] (both, human, in vivo), 14.4 to 18.5 h. Moreover, the “Serious AEs (SAEs)” value in series [4] (SAD and MAD studies) was “no serious AEs”. Further, in series [4] (single and multiple oral doses between 1 and 150 mg (SAD and MAD studies), healthy participants), the Tolerability result is “well-tolerated”. Moreover, the CL renal in series [6] (human, in vivo, day 1 (single dose)) is 1.85 mL/min; in series [6] (human, in vivo, day 14), 1.92 mL/min. Moreover, the “Steady state concentrations reached” value in series [6] (plasma, multiple dosing, all cohorts) is not above 5 days.

For the origin of these results see PMC5651349 (Alzheimer's & Dementia : Translational Research & Clinical …, 2016).
